In patent EP0112633A2, “Novel 5-thiaprostaglandin, process for production thereof, and pharmaceutical use thereof” (TEIJIN LIMITED, priority 1982, dated 1984):
In brackets after ≈: the same amount, converted by molar mass. Where two headings read alike, the source gives them in different places.

What was measured:
L1210 leukemia cells = experiment: Inhibition of proliferation of L1210 leukemia cells (trypan blue count of surviving cells after 4 days); assay type: cell-based; settings: RPMI medium with 10% FCS, 37°C, ratio of proliferation against 0.1% ethanol control
Protocol: Measurement of the action of inhibiting proliferation of […] leukemia cell:-
L1210 leukemia cells were added to an RPMI medium containing 10% FCS (fetal calf serum), and the concentration of the cells was adjusted to 1 × 10^5 cells/ml. […] Prior to use, the final concentration of the ethanol solution was adjusted to less than 0.1%, and it was added to the culture medium. The culture medium was then maintained at 37°C in a stationary condition for 4 days. After the cultivation, the number of surviving cells was measured by dyeing with trypan flue. As a control, 0.1% ethanol was used. A dose-reaction curve was plotted from the ratios of proliferation against the control, and IC50 was determined.

platelet aggregation = experiment: In vitro inhibition of ADP-induced platelet aggregation in platelet-rich plasma (aggregometer); assay type: cell-based, Japanese domestic white male rabbits
Protocol: in vitro inhibitory activity of platelet aggregation:-
The in vitro platelet aggregation imhibiting activity of the compounds of the invention were examined by using rabbits. Blood was withdrawn from the ear vein of Japanese domestic white male rabbits weighing 2.5 to 3.5 kg. A mixture of a 3.8% trisodium citrate solution and the blood in a ratio of 1:9 was centrifuged at a speed of 1000 rpm for 10 minutes. The upper layer was separated as platelet- rich plasma (PRP). The lower layer was further centrifuged at a speed of 28000 rpm for 10 minutes. The upper layer was separated as platelet-poor plasma (PPP). The number of platelets was adjusted to 6 x 10^5/µℓ to 7 x 10^5/µℓ by diluting the PRP with PPP. 25 microliters of the test compounds prepared as shown below was added in an amount of 25 to 250 microliters of PRP after the adjustment, and the mixture was pre-incubated at 37°C for 2 minutes, and then 10 µM (final) of ADP was added. By using an aggregometer, changes in transmission were recorded.
The drug was dissolved in ethanol to a concentration of 10 mg/mt, and successively diluted with phosphate buffer (pH 7.4) prior to use.
The rate of inhibition of platelet aggregation was determined from the following equation. [formula] • T: the transmittance of the system containing the phosphate buffer, • T : the transmittance of the system to which the test drug was added.
The minumum concentration of the drug which inhibited more than 50% of platelet aggregation was shown as an IC50 value.

ethanol ulcer = experiment: Ethanol ulcer test (inhibitory activity on ethanol ulcer); assay type: in vivo, SD-strain rats; settings: rats; for Ulcer index (mm): 75% ethanol 30 min later, stomach examined 1 h later; for ED50: p.o., ethanol ulcer
Protocol: Measurement of inhibitry activity on ethanol ulcer:- An ethanol ulcer test was carried out by the following processure. SD-strain rats (body weight 200 to 220 g; 7 weeks old) were fasted for 24 hours, and a solution of each of the test compounds in physiological saline buffered with phosphate buffer at pH 7.5 was orally administered. Thirty minutes after the administration, 75% ethanol was orally administered in a dose of […]. One hour later, the abdomen was incised to isolate the stomach. […] The total of these lengths was defined as the ulcer index. A control group was given physiological saline buffered with phosphate buffer (pH 7.5) and 75% ethanol.

blood pressure = experiment: Hypotensive activity by intravenous injection under anesthesia; assay type: in vivo, Male wister rats; settings: anesthetized rats, i.v.; dosage which caused a 20% lowering of the mean blood pressure
Protocol: Measurement of the hypotensive activity:-
The actions of the 5-thiaprostaglandin of the invention on the blood pressure was examined by intravenous injection under anesthesia.
Male wister rats weighing about 250 g were used. Urethane (500 mg/kg) and a-chloralose (100 mg/kg) were intraperitoneally administered to the rats. The rats were anesthetized and fixed in place.
Each of the test compounds was dissolved in a small amount of ethanol and diluted with physiological saline to adjust the final ethanol concentration to not more than 5%. The solution was intravenously injected into the rats through a catheter inserted into the femoral vein.
The blood pressure of the rats was measured by a pressure transducer through a catheter inserted into the carotid artery of the rats.
The action of the test compound on the blood pressure was expressed as the dosage (ED20, u/kg) of the test compound which caused a 20% lowering of the mean blood pressure before administration of the compound.

Q: Which IC50 (L1210 leukemia cells) does the source give for 5-thiaprostaglandin E1 methyl ester here?
A: 0.6 µg/mL

Q: For “17(S),20-dimethyl-5-thiaprostaglandin E1 methyl ester”, which IC50 (platelet aggregation; rabbit PRP, 10 µM (final) ADP, minimum concentration which inhibited more than 50% of platelet aggregation) is on record?
A: 0.33 µg/mL

Q: And the “Ulcer inhibiting rate (%)” value (ethanol ulcer; p.o. 0.3 µg/kg)?
A: 46.8%

Q: And the “Ulcer index (mm)” value (ethanol ulcer; p.o. 0.3 µg/kg)?
A: 18.4 ±4.3 mm

Q: And the “Ulcer inhibiting rate (%)” value (ethanol ulcer; p.o. 1 µg/kg)?
A: 97.7%

Q: What about the “Ulcer index (mm)” value (ethanol ulcer; p.o. 1 µg/kg) of the same molecule?
A: 0.8 ±0.6 mm

Q: And the “Ulcer inhibiting rate (%)” value (ethanol ulcer; p.o. 3 µg/kg)?
A: 100%

Q: And the “Ulcer index (mm)” value (ethanol ulcer; p.o. 3 µg/kg)?
A: 0 mm

Q: What about the ED50 (ethanol ulcer) of the same molecule?
A: 0.35 µg/kg

Q: What about the ED20 (blood pressure) of the same molecule?
A: 2.7 µg/kg

Q: `CCCCCC(O)C=CC1C=CC(=O)C1=CCSCCCC(=O)OC` (centres unmarked) [12-epimer of (7E)-Δ^7-5-thiaprostaglandin A1 methyl ester] was tested. Which IC50 (L1210 leukemia cells) did it give?
A: 0.3 µg/mL

Q: How did the IC50 (platelet aggregation; Oryctolagus cuniculus, rabbit PRP, 10 µM (final) ADP, minimum concentration which inhibited more than 50% of platelet aggregation, read-out: IC50) turn out when `CCCC[C@@H](C)C[C@H](O)/C=C/[C@H]1[C@H](O)CC(=O)[C@@H]1CCSCCCC(=O)OC` [17(R),20-dimethyl-5-thiaprostaglandin E1 methyl ester] was run?
A: 0.36 µg/mL (≈ 0.868 µM)

Q: With `CCCCC[C@H](O)/C=C/[C@H]1C=CC(=O)/C1=C/CSCCCC(=O)OC` [(7E)-Δ^7-5-thiaprostaglandin A1 methyl ester] as the molecule, how does the IC50 (L1210 leukemia cells; Mus musculus, 96 h, read-out: IC50) read?
A: 0.2 µg/mL

Q: Which results are given for `CCCCC[C@H](O)/C=C/[C@H]1[C@H](O)CC(=O)[C@@H]1CCCCCCC(=O)O` [Prostaglandin E1, reference compound]?
A: IC50 (platelet aggregation; Oryctolagus cuniculus, Platelet, in vitro, ADP 10 µM (printed "ADPlOpM"), read-out: inhibiting platelet aggregation activity (IC50)): 0.03 µg/mL (≈ 0.0846 µM); inhibition at 0.003 mg/kg (ethanol ulcer; Rattus norvegicus, po, p.o. 3 µg/kg, read-out: Ulcer inhibiting rate (%)): 50%; inhibition at 0.01 mg/kg (ethanol ulcer; Rattus norvegicus, po, p.o. 10 µg/kg, read-out: Ulcer inhibiting rate (%)): 96.2%; ED50 (ethanol ulcer; Rattus norvegicus, po, read-out: ED50): 3 µg/kg; Ulcer index (mm) (ethanol ulcer; p.o. 3 µg/kg): 17.1 ±5.5 mm; Ulcer index (mm) (ethanol ulcer; p.o. 10 µg/kg): 1.3 ±0.8 mm

Q: For “(7E)-Δ^7-5-thiaprostaglandin E1 methyl ester and its 15-epimer [A mixture of (7E)-Δ^7-5-thiaprostaglandin E1 methyl ester of its 15-epimer]”, which IC50 (L1210 leukemia cells) is on record?
A: 0.4 µg/mL
